According to patent US20110045101A1, “FUNGICIDAL SUBSTITUTED AZOLES” (E.I. Du Pont De Nemours and Company, priority 2009, published 2011):
Marks after values point to notes of the source that are not given here.

Tests used:
Type in all cases: in vivo
Details in all cases: 100 = 100% disease control
Botrytis cinerea = assay: Test C: tomato Botrytis on tomato seedlings, sprayed the day before inoculation, visual disease rating
Method in brief: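 Compounds were dissolved in acetone (3% of final volume), then suspended in 50/50 acetone/purified water containing 250 ppm polyhydric alcohol ester surfactant. Suspensions were sprayed to run-off on tomato seedlings at 200 ppm, equivalent to 500 g/ha, or at 40 ppm where marked.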

Alternaria solani = assay: Test D: tomato early blight, sprayed the day before inoculation, visual disease rating
Method in brief: (§1)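 Compounds were dissolved in acetone (3% of final volume), then suspended in 50/50 acetone/purified water with 250 ppm Trem® 014 surfactant. Suspensions at 200 ppm (some at 40 ppm) were sprayed to run-off, 200 ppm being equivalent to 500 g/ha.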

Septoria nodorum = assay: Test F: wheat glume blotch on wheat seedlings, sprayed the day before inoculation, visual disease rating
Method in brief: as §1

Septoria tritici = assay: Test G: wheat leaf blotch on wheat seedlings, sprayed the day before inoculation, visual disease rating
Method in brief: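 Disease was rated visually after Septoria tritici inoculation, 48 h saturated incubation at 24°C and 19 days in a 20°C growth chamber. Inoculation followed one day after run-off spraying of seedlings with compound at 200 ppm (≈500 g/ha) or, where marked, 40 ppm, formulated in acetone/water with surfactant.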

[1] = test system: Puccinia recondita f. sp. tritici; assay: Test H: wheat leaf rust, test suspension sprayed after inoculation of wheat seedlings, visual disease rating
Excerpt: General protocol for preparing test suspensions for Tests A-J: The test compounds were first dissolved in acetone in an amount equal to 3% of the final volume and then suspended at the desired concentration (in ppm) in acetone and purified water (50/50 mix) containing 250 ppm of the surfactant Trem® 014 (polyhydric alcohol esters). The resulting test suspensions were then used in tests A-J. Spraying a 200 ppm test suspension to the point of run-off on the test plants was the equivalent of a rate of 500 g/ha. […] Wheat seedlings were inoculated with a spore suspension of Puccinia recondita f. sp. tritici (the causal agent of wheat leaf rust) and incubated in a saturated atmosphere at 20° C. for 24 h, and then moved to a growth chamber at 20° C. for 2 days. […] A dash (-) indicates no test results. All results are for 200 ppm except where followed by “*”, which indicates 40 ppm.

[2] = test system: Puccinia recondita f. sp. tritici; assay: Test I: wheat leaf rust on wheat seedlings, sprayed the day before inoculation, visual disease rating
Method in brief: as §1

[3] = test system: Erysiphe graminis f. sp. tritici; assay: Test J: wheat powdery mildew on wheat seedlings, sprayed the day before inoculation, visual disease rating
Method in brief: as §1

[4] = 200 ppm, 0 = no control relative to controls
[5] = 40 ppm (marked *), 0 = no control

COc1cc(F)c(-c2c(Cl)nnn2-c2ccc(Cl)cc2)c(F)c1 [compound 626]
Test C disease control rating (Botrytis cinerea; [4]): 99% | Test D disease control rating (Alternaria solani; [4]): 99% | Test F disease control rating (Septoria nodorum; [4]): 0% | Test G disease control rating (Septoria tritici; [4]): 100% | Test H disease control rating [1, 4]: 17% | Test I disease control rating [2, 4]: 79% | Test J disease control rating [3, 4]: 97%

Fc1cc(-n2c(Cl)nc(CCl)c2-c2cncc(Br)c2)ccc1Cl [compound 355]
Test C disease control rating (Botrytis cinerea; [4]): 0% | Test D disease control rating (Alternaria solani; [4]): 0% | Test F disease control rating (Septoria nodorum; [4]): 0% | Test G disease control rating (Septoria tritici; [4]): 3% | Test H disease control rating [1, 4]: 0% | Test I disease control rating [2, 4]: 28% | Test J disease control rating [3, 4]: 0%

3-[4-[4-chloro-2-methyl-1-(4-methylphenyl)-1H-imidazol-5-yl]-3,5-difluorophenoxy]-N-methyl-1-propanamide hydrochloride [Compound 734]
Test C disease control rating (Botrytis cinerea; [4]): 100% | Test D disease control rating (Alternaria solani; [4]): 99% | Test F disease control rating (Septoria nodorum; [4]): 99% | Test G disease control rating (Septoria tritici; [4]): 99% | Test H disease control rating [1, 4]: 41% | Test I disease control rating [2, 4]: 100% | Test J disease control rating [3, 4]: 95%

COc1cc(Cl)cc(Cl)c1-c1c(Cl)nc(Cl)n1-c1ccc(Cl)c(F)c1 [compound 438]
Test C disease control rating (Botrytis cinerea; [4]): 0% | Test D disease control rating (Alternaria solani; [4]): 0% | Test F disease control rating (Septoria nodorum; [4]): 0% | Test G disease control rating (Septoria tritici; [5]): 86* % | Test H disease control rating [1, 4]: 0% | Test I disease control rating [2, 4]: 0% | Test J disease control rating [3, 4]: 0%

COc1ccc(-c2c(Cl)ncn2-c2ccc(F)cc2)c(Cl)c1 [compound 726]
Test C disease control rating (Botrytis cinerea; [4]): 99% | Test D disease control rating (Alternaria solani; [4]): 99% | Test F disease control rating (Septoria nodorum; [4]): 0% | Test G disease control rating (Septoria tritici; [4]): 99% | Test H disease control rating [1, 4]: 0% | Test I disease control rating [2, 4]: 80% | Test J disease control rating [3, 4]: 89%

Cc1nc(Br)c(-c2ccc(Cl)cc2)n1-c1ccc(F)cc1Cl [compound 338]
Test C disease control rating (Botrytis cinerea; [4]): 100% | Test D disease control rating (Alternaria solani; [4]): 100% | Test F disease control rating (Septoria nodorum; [4]): 80% | Test G disease control rating (Septoria tritici; [4]): 93% | Test H disease control rating [1, 4]: 0% | Test I disease control rating [2, 4]: 99% | Test J disease control rating [3, 4]: 99%

N#Cc1ccc(F)c(-c2c(Cl)nc(Cl)n2-c2cccc(F)c2)c1F [compound 681]
Test C disease control rating (Botrytis cinerea; [4]): 99% | Test D disease control rating (Alternaria solani; [4]): 100% | Test F disease control rating (Septoria nodorum; [4]): 98% | Test G disease control rating (Septoria tritici; [4]): 99% | Test H disease control rating [1, 4]: 0% | Test I disease control rating [2, 4]: 99% | Test J disease control rating [3, 4]: 100%

COc1cc(F)c(-c2c(Br)ncn2-c2ccc(F)cc2)c(F)c1 [compound 506]
Test C disease control rating (Botrytis cinerea; [4]): 100% | Test D disease control rating (Alternaria solani; [4]): 100% | Test F disease control rating (Septoria nodorum; [4]): 92% | Test G disease control rating (Septoria tritici; [4]): 99% | Test H disease control rating [1, 4]: 78% | Test I disease control rating [2, 4]: 100% | Test J disease control rating [3, 4]: 99%

Cc1ncn(-c2ccc(Cl)cn2)c1-c1c(F)cccc1F [compound 320]
Test C disease control rating (Botrytis cinerea; [4]): 99% | Test D disease control rating (Alternaria solani; [4]): 67% | Test F disease control rating (Septoria nodorum; [4]): 0% | Test G disease control rating (Septoria tritici; [4]): 100% | Test H disease control rating [1, 4]: 0% | Test I disease control rating [2, 4]: 28% | Test J disease control rating [3, 4]: 99%

Cc1cccc(-c2c(C)nc(Cl)n2-c2ccc(Cl)c(F)c2)n1 [compound 378]
Test C disease control rating (Botrytis cinerea; [4]): 100% | Test D disease control rating (Alternaria solani; [4]): 0% | Test F disease control rating (Septoria nodorum; [4]): 0% | Test G disease control rating (Septoria tritici; [4]): 93% | Test H disease control rating [1, 4]: 0% | Test I disease control rating [2, 4]: 74% | Test J disease control rating [3, 4]: 75%

Cc1nc(Cl)c(-c2c(F)cccc2F)n1-c1ccc2ncccc2c1 [compound 468]
Test C disease control rating (Botrytis cinerea; 40 ppm (marked *)): 99* % | Test D disease control rating (Alternaria solani; 40 ppm (marked *)): 99* % | Test F disease control rating (Septoria nodorum; 40 ppm (marked *)): 0* % | Test G disease control rating (Septoria tritici; 40 ppm (marked *)): 96* % | Test H disease control rating ([1]; 40 ppm (marked *)): 0* % | Test I disease control rating ([2]; 40 ppm (marked *)): 91* % | Test J disease control rating ([3]; 40 ppm (marked *)): 58* %

Cc1ccc(-n2c(C)nc(C)c2-c2c(F)ccc(F)c2Cl)cc1 [compound 493]
Test C disease control rating (Botrytis cinerea; 40 ppm (marked *)): 96* % | Test D disease control rating (Alternaria solani; 40 ppm (marked *)): 99* % | Test F disease control rating (Septoria nodorum; 40 ppm (marked *)): 0* % | Test G disease control rating (Septoria tritici; 40 ppm (marked *)): 93* % | Test H disease control rating ([1]; 40 ppm (marked *)): 0* % | Test I disease control rating ([2]; 40 ppm (marked *)): 97* % | Test J disease control rating ([3]; 40 ppm (marked *)): 99* %

Fc1ccc(-n2c(Br)nc(Br)c2-c2c(F)cc(F)cc2F)cc1 [compound 462]
Test C disease control rating (Botrytis cinerea; 40 ppm (marked *)): 100* % | Test D disease control rating (Alternaria solani; 40 ppm (marked *)): 100* % | Test F disease control rating (Septoria nodorum; 40 ppm (marked *)): 0* % | Test G disease control rating (Septoria tritici; 40 ppm (marked *)): 96* % | Test H disease control rating ([1]; 40 ppm (marked *)): 0* % | Test I disease control rating ([2]; 40 ppm (marked *)): 78* % | Test J disease control rating ([3]; 40 ppm (marked *)): 99* %

Cc1nc(Br)c(-c2c(F)cccc2F)n1-c1ccc2c(c1)OCCO2 [compound 602]
Test C disease control rating (Botrytis cinerea; 40 ppm (marked *)): 99* % | Test D disease control rating (Alternaria solani; 40 ppm (marked *)): 91* % | Test F disease control rating (Septoria nodorum; 40 ppm (marked *)): 0* % | Test G disease control rating (Septoria tritici; 40 ppm (marked *)): 99* % | Test H disease control rating ([1]; 40 ppm (marked *)): 0* % | Test I disease control rating ([2]; 40 ppm (marked *)): 98* % | Test J disease control rating ([3]; 40 ppm (marked *)): 81* %

COc1cc(F)c(-c2c(Cl)nc(C)n2-c2ccc(C(F)(F)F)nc2)c(F)c1 [Compound 713, 5-[4-chloro-5-(2,6-difluoro-4-methoxyphenyl)-2-methyl-1H-imidazol-1-yl]-2-(trifluoromethyl)pyridine]
pest or weed control at 200 ppm (Botrytis cinerea; Botrytis cinerea, 120 h, 200 ppm, 0 = no control relative to controls): 100% | pest or weed control at 200 ppm (Alternaria solani; Alternaria solani, 168 h, 200 ppm, 0 = no control relative to controls): 100% | pest or weed control at 200 ppm (Septoria nodorum; Parastagonospora nodorum, 264 h, 200 ppm, 0 = no control relative to controls): 100% | pest or weed control at 200 ppm (Septoria tritici; Zymoseptoria tritici, 504 h, 200 ppm, 0 = no control relative to controls): 100% | pest or weed control at 200 ppm ([1]; Puccinia recondita, 96 h, 200 ppm, 0 = no control relative to controls): 78% | pest or weed control at 200 ppm ([2]; Puccinia recondita, 168 h, 200 ppm, 0 = no control relative to controls): 100% | pest or weed control at 200 ppm ([3]; Blumeria graminis, 168 h, 200 ppm, 0 = no control relative to controls): 100%

COc1ccc(F)c(-c2c(Cl)nc(Cl)n2-c2cccc(OC(F)F)c2)c1F [compound 400]
Test C disease control rating (Botrytis cinerea; [4]): 100% | Test D disease control rating (Alternaria solani; [4]): 100% | Test F disease control rating (Septoria nodorum; [4]): 99% | Test G disease control rating (Septoria tritici; [4]): 94% | Test H disease control rating [1, 4]: 0% | Test I disease control rating [2, 4]: 99% | Test J disease control rating [3, 4]: 100%

Fc1cc(-n2c(Br)nc(Br)c2-c2c(F)ccc(F)c2F)ccc1Cl [compound 382]
Test C disease control rating (Botrytis cinerea; [5]): 100* % | Test D disease control rating (Alternaria solani; [5]): 99* % | Test F disease control rating (Septoria nodorum; [5]): 0* % | Test G disease control rating (Septoria tritici; [5]): 96* % | Test H disease control rating [1, 5]: 0* % | Test I disease control rating [2, 5]: 95* % | Test J disease control rating [3, 5]: 97* %
